Tests used:
Ae. aegypti adults = test: Adult mosquito bottle bioassay; assay type: in vivo, Aedes aegypti; details: 24 h exposure; for Slope: probit
Procedure: (§1) Adult mosquitoes were tested using the bottle bioassay method of Brogden and McAllister (J. Am. Mosq. Control Assoc., 14:159–64, 1998) with minor modifications. Natural product extracts were two-fold serially diluted for a total of 8 concentrations ranging from 0.002% to 0.25% in 1.5 ml of acetone. Individual dilutions were added to 250 ml Wheaton glass bottles and capped. Bottles were manipulated to evenly coat all inner surfaces. The caps were removed and bottles were allowed to air-dry overnight. Once bottles were completely dry, 10–50 (in some tests 25–50) adult mosquitoes were aspirated into the bottles. Mosquitoes were held in the bottles for 24 h at 23° C. and 85% RH. Morbidity and mortality were recorded at 15, 30, 45, and 60 min and 24 hour intervals. One bottle for each replicate was treated with acetone only and served as a control. The dose-mortality data was evaluated with probit analysis, using the LdP Line software, to determine LC50 and LC90 values.
Carvacrol was combined with compound 7, 9, or 10 at a 1:1 ratio (7.5 μl of carvacrol:7.5 μl of compound 7, 9, or 10 was added to 2,985 μl of acetone for a 0.5% solution, from which serial dilutions were made), and tested as previously described against nymphal ticks and adult and larval mosquitoes.

[1] = test system: ticks, fleas, formicids and termites; test: Persistence of biocidal activity in vials treated with 2% solutions (Example 5); assay type: in vivo; details: at 11 weeks
Procedure: (§2) Samples of the compounds listed below were obtained as described in Example 1, and screened for biocidal activities against nymphal Ixodes scapularis. In this example, 2% acetone solutions (wt/vol) of the compounds were applied to inner surfaces of 2-dram friction cap vials. Vials and caps were treated then allowed to dry for a minimum of 4 hours before placing 10 nymphs in each container. These same vials were used to challenge additional nymphs and adult I. scapularis ticks and adult Xenopsylla cheopis fleas through five weeks to observe any possible residual activity.
Persistence of biocidal activity was determined for nootkatone and valencene-11,12-epoxide by using the vials as treated with the 2% solutions of Example 2. This bioassay employed groups of ticks, fleas, formicids and termites using a method similar to that described in Example 2. […] At 11 weeks, the biocidal activity began to dissipate below the 100% mortality level.

I. scapularis nymphs = test: Tick bioassay, treated 2-dram vials, probit analysis; assay type: in vivo, Ixodes scapularis; details: 24 h exposure; for LC50 / LC90: NE = not effective at concentrations tested; for Slope: probit
Excerpt: A control treated with acetone only was run with each series.
For each time point, if ticks and fleas were incapable of movement, maintaining normal posture, leg coordination, ability to right themselves, or any signs of life, they were considered moribund or dead.

[2] = test system: ticks, fleas, and mosquitoes; test: Pesticidal activity against all three arthropods, general statements (Examples 9, 17); assay type: in vivo; details: 24 hours exposure; initial screenings
Procedure: Concentrations of the compounds were prepared by 2-fold serial dilutions of a 0.5% (wt:vol) solution of the extracts in acetone (see, e.g., Panella et al., J. Med. Entomol., 42(3):352-358, 2005). The approximate toxicity of individual compounds and compounds in combination was determined with a total of 8 doses ranging from 0.002% to 0.25%. […] A control treated with acetone only was run with each series. Tick and flea susceptibility was evaluated using a modification of the disposable pipette method of Barnard et al. (J. Econ. Entomol., 74:466–69, 1981) and Maupin and Piesman (J. Med. Entomol., 31:319–321, 1994).
Briefly, groups of 10 nymphal I. scapularis and X. cheopis fleas were used in all tests (more than a total of 5,240 nymphs and 4,860 fleas were exposed to the compounds). The inner surface of 2-dram friction cap vials were treated with the compound/acetone solution, or acetone only as a control, and left to air-dry overnight (see also, Panella et al., J. Med. Entomol., 42(3):352-358, 2005. Three to 4 holes were made in the plastic cap to allow for air exchange. Nymphal ticks and adult fleas were then placed directly into the vials using forceps. Vials containing ticks or fleas were placed in desiccators for 24 h at 21° C. and 90% RH. Morbidity and mortality was recorded at 1, 2, 4, 8, and 24 h after initial exposure.
as §1, with “Once bottles were completely dry, 10–50 (in some tests 25–50) adult mosquitoes were aspirated into the bottles. Mosquitoes were held in the bottles for 24 h at 23° C. and 85% RH.” left out, “One bottle for each replicate was treated with acetone only and served as a control.” left out

[3] = test system: Ixodes scapularis nymphal ticks; test: Tick repellency bioassay; assay type: in vivo; details: combinations 1:1 by weight
Excerpt: One-hundred (100) μl of test compound was pipetted onto a cotton-tipped applicator mounted to the bottom center of a 1 dram glass shell vial using non-toxic modeling clay. A total of 8 concentrations were screened with doses ranging from 0.04–5.0%. Applicators treated with acetone only served as controls. A line was drawn around the perimeter of the vial immediate to the base of the treated cotton portion of the applicator. The area above the line was designated the “repellent zone”. The vial was allowed to air-dry 1 h before a single tick was introduced. Vials were covered with a single piece of mesh and fitted with a hollowed-out plastic cap to cover the opening of the vial; this prevented the tick from escaping but allowed for air exchange. Vials were breathed upon by investigators at 1 min intervals and a hand was placed over the test vials to provide stimuli for ticks to pass into the repellent zone. […] If the tick crossed over and remained in the “repellent zone” for ≧5 sec, the tick was deemed non-repelled by the test compound. Each test was replicated 10 times using a new tick for each test. Repellent activity was determined at 1, 2, 3, and 4 h after treatment. Probit analysis was used to determine repellent efficacy (RD50 and RD95).

[4] = test system: ticks, fleas and mosquitoes; test: Example 2 bioassay, qualitative comparison on ticks, fleas and mosquitoes (Examples 4, 6); assay type: in vivo
Procedure: as §2
Nootkatol was tested using the bioassay presented in Example 2.
Two nootkatone samples were compared to nootkatone isolated from Alaska yellow cedar using the method presented in Example 1. The first sample was a natural extract of nootkatone taken from grapefruit oil purchased commercially. The second sample was a synthetically produced nootkatone purchased commercially.
Both samples were compared to the nootkatone originating from Alaska yellow cedar in terms of their biocidal activities. Using a bioassay method similar to that presented in Example 2, no qualitative differences were discernible among the nootkatone samples in terms of their biocidal effect on ticks, fleas and mosquitoes.

X. cheopis adults = test: Flea bioassay, treated 2-dram vials, probit analysis; assay type: in vivo, Xenopsylla cheopis; details: 24 h exposure
Procedure: Med. […] A control treated with acetone only was run with each series. Tick and flea susceptibility was evaluated using a modification of the disposable pipette method of Barnard et al. (J. Econ. Entomol., 74:466-69, 1981) and Maupin and […]. Med. […] The inner surface of 2-dram friction cap vials were treated with the compound/acetone solution, or acetone only as a control, and left to air-dry overnight (see also, […] et al., J. Med. […] Three to 4 holes were made in the plastic cap to allow for air exchange. Nymphal ticks and adult fleas were then placed directly into the vials using forceps. […] For each time point, if ticks and fleas were incapable of movement, maintaining normal posture, leg coordination, ability to right themselves, or any signs of life, they were considered moribund or dead.

[5] = NE = not effective at concentrations tested

SMILES | Slope (Ae. aegypti adults) | LC50 (I. scapularis nymphs) | LC90 (I. scapularis nymphs) | Slope (I. scapularis nymphs) | pesticidal activity [2] | further results
C[C@@H]1CCC=C2CCC(C3(C)CO3)C[C@]21C (stereo partly shown) [Compound 13, valencene-11,12-epoxide] | 1.581 | 21.219 percent concentration, wt:vol | 3713.114 percent concentration, wt:vol | 0.571 | – | mortality level [1]: < 100%
CC1=CCC2C(C1)C2(C)C (stereo not shown) [Compound 1, 3-Carene] | – | – | – | – | no pesticidal activity | –
COc1cc(C(C)C)ccc1C [Compound 3, Methyl carvacrol] | – | – | – | – | no pesticidal activity | –
C=C(C)[C@@H]1CCC2=C[C@@H](O)C[C@@H](C)[C@]2(C)C1 [Compound 12, Nootkatol] | 3.201 | 0.023 percent concentration, wt:vol | 0.059 percent concentration, wt:vol | 3.069 | – | RD50 ([3]; 1 hr): 0.047 % (w/v); RD50 ([3]; 4 hr): 0.320 % (w/v); LC50 (Ae. aegypti adults; [5]): 0.004 percent concentration, wt:vol; LC90 (Ae. aegypti adults; [5]): 0.01 percent concentration, wt:vol; biocidal activity compared with nootkatene [4]: essentially equivalent to the activity of nootkatene; LC50 (X. cheopis adults; [5]): 0.024 percent concentration, wt:vol; Slope (X. cheopis adults; probit): 2.101
CC1=CCC(O)(C(C)C)CC1 (stereo not shown) [Compound 2, Terpinen-4-ol] | – | – | – | – | no pesticidal activity | –

Source: US7230033B2, “Pest control compositions and methods for their use” (United States of America as represented by the Secretary of …, priority 2000, dated 2007)
